We go through 91 compounds from a melting point compilation (Tetko et al.; mined from patent text by program, amines drawn as free bases though some values may be those of a salt).

A value given as a limit tells only on which side of the number the result lay.

Consider `COc1ccc2c(c1)N1CCOCC1C[N+]([O-])=C2c1ccco1` (stereo unspecified), for which the melting point is 183 to 186 °C.

On to `CC1(C)CC(NC(=O)c2ccc(Cl)c([N+](=O)[O-])c2)CC(C)(C)N1`, for which the melting point is 166 to 168 °C.

The compound `COc1ccc(NC(C)=O)c(Sc2ccc([N+](=O)[O-])cc2[N+](=O)[O-])c1` registered a melting point of 125 to 126 °C. With `C/C(=C\c1ccc(OCCN(C)C)cc1)c1ccc2c(c1)C(C)(C)CCS2` the figure was 81 to 82 °C; with `O=C(OCC(O)CO)C(=O)c1ccc(OCCOc2ccc3ccccc3c2)cc1` (stereo unspecified), 124 to 125 °C. In the case of `COC(=O)NCC1CC(c2ccccc2)=NO1` (stereo unspecified) it was 102 to 103 °C. In turn, `O=C(O)CCCNC(=O)CCCNC(=O)c1cc(Br)no1` gave a melting point of 157 to 158 °C. In the case of `CCCCCCOC(=O)C1=C(C)NN=C(c2ccccc2)C1c1cccc(Cl)c1` (stereo unspecified) it was 103 °C.

`FC(F)C(F)(F)Sc1nc(-c2ccccc2)c(-c2ccccc2)n1C1CCCO1` (stereo unspecified) displayed a melting point of 145 to 146 °C.

As to `COC(=O)c1c(C)c([N+](=O)[O-])cc2nc(OC)c(OC)nc12`, the melting point fell in the range of 174 to 176 °C. With `CCCc1nc(C(O)C(C)(C)C)c(C#N)n1Cc1ccc(-c2ccccc2-c2nnnn2C(c2ccccc2)(c2ccccc2)c2ccccc2)cc1` (stereo unspecified) the figure was 115 to 117 °C; with `CC1(CC(=O)O)OCCc2c1[nH]c1ccccc21` (stereo unspecified), 87 to 90 °C; with `Cc1nc(-c2ccc(Cl)cc2)c(CBr)o1`, 75 to 76 °C. On to `CC(C)(C)NNC(=O)C(C)(C)C`, for which the melting point fell in the range of 97 to 105 °C.

`O=C(O)C(ON=c1c2nccc3cccc(c32)n2cccc12)c1ccccc1` (stereo unspecified): the melting point came to 200 °C.

`O=[N+]([O-])c1c(NC2CC2)ncnc1N1CCc2ccccc2CC1`: the melting point was 135 to 138 °C. With `Cn1nnnc1SCC1=NCCc2cc(OCc3ccccc3)c(OCc3ccccc3)cc21` the figure was 146 to 148 °C; with `CCCn1nc2c(N)nc3ccccc3c2c1CC(C)(C)C#N`, 248 to 250 °C; with `COc1ccc(C=C2OC(=O)c3ccccc32)cc1[N+](=O)[O-]`, 173 to 181 °C. With `O=C1c2ccccc2C(O)(c2ccc(F)cc2)C2=NCCCN12` (stereo unspecified) the figure was 126 to 128 °C; with `OC1c2ccc(F)cc2SC1Cn1ccnc1` (stereo unspecified), 165 to 166 °C; with `CC(C)(C)NC(=O)[C@@H]1CCCN1C(=O)[C@@H](O)[C@H](Cc1ccccc1)NC(=O)[C@H](CC(N)=O)NC(=O)COc1ccccc1N`, 107 to 114 °C.

The compound `Cc1[nH]cc2c(=O)n(-c3ccc(Cl)cc3)nc-2c1-c1cccc(-c2cccnc2)c1` displayed a melting point of 312 to 318 °C.

Turning to `CON=C(c1ccc(Cl)cc1)C(CNOC)CN1CCN(c2ccccn2)CC1` (stereo unspecified), the melting point lay within 106 to 109 °C. In the case of `S=C(NCN1CCOCC1)C(CN1CCOCC1)c1ccccn1` (stereo unspecified) it was 109 to 111 °C; in that of `CC(C)OC(=O)N1CC(=S)Nc2ccc(-c3cccc(Cl)c3)cc21`, 208 to 212 °C; in that of `CCOC(=O)C1=C(CN2C(=O)c3ccccc3C2=O)NC(CN2C(=O)c3ccccc3C2=O)=C(C(=O)OCC)C1c1ccccc1Cl`, 162 to 164 °C. In the case of `O=c1c[n+]([O-])c2cc(Cl)c(Cl)cc2[nH]1` it was 278 to 280 °C; in that of `O=C(Nc1cc(Cl)c(O)c(Cl)c1)c1cc(F)ccc1O`, 227 to 229 °C. With `CCOP(=O)(Cc1ccc(NC(=O)C(Cc2ccccc2)C(=O)O)cc1)OCC` (stereo unspecified) the figure was 160 to 161 °C.

Consider `O=C(Nc1nnn[nH]1)c1c[nH]c(=S)n1C1CCc2c(F)cc(F)cc2C1` (stereo unspecified), for which the melting point is 228 to 230 °C.

In the case of `CC(=CCO)c1ccc(-c2ccccc2)cc1`, the melting point was 112 to 114 °C. The compound `Cc1cc2c(-c3cccc(-c4noc(=O)[nH]4)c3)c(CC(=O)Nc3ccc(F)cc3C(F)(F)F)c(=O)oc2cc1Cl` returned a melting point of 285 to 287 °C. With `COc1cccc(NS(=O)(=O)c2cccc(C=CC(=O)NO)c2)c1` the figure was 137 °C; with `CC[Si](C#Cc1c2cc3ccccc3cc2c(C#C[Si](CC)(CC)CC)c2cc3ccccc3cc12)(CC)CC`, 210 °C.

As to `CN(C)N=Nc1cc([N+](=O)[O-])sc1C(N)=O`, the melting point is 240 to 246 °C.

`O=C(c1ccccc1)c1cnc2cnccc2c1O` had a melting point of 228 °C. In the case of `O=C(c1ccc(S)cc1)c1cccc([N+](=O)[O-])c1` it was 114 °C; in that of `COC(=N)CCSCc1csc(N=C(N)N)n1`, 126 °C. With `CCCCCCCCCCCCOC(=O)c1cc(N=NN(CCO)c2ccc(C)cc2)ccc1[N+](=O)[O-]` the figure was 64 to 66 °C.

For `CC(C)n1nc(-c2sc(N)nc2-c2ccccc2)ccc1=O`, the melting point was more than 250 °C. In the case of `OCCc1c(-c2ccccc2)[nH]c2nccnc12` it was 201 to 202 °C; in that of `Cc1cc(C#N)cc(C(=O)c2nc(OCc3ccccc3)nc(OCc3ccccc3)c2C(C)C)c1`, 129 to 130 °C; in that of `COC(=O)Cc1cc2c(cc1CC(=O)NCCc1cccc(OC)c1)OCO2`, 81 to 83 °C. In the case of `Nc1nc(SC(c2ccccc2)c2ccccc2)c2[nH]cnc2n1` it was 226 to 227 °C; in that of `OCc1cc(I)ccc1O`, 105 to 110 °C. With `Cc1csc(-c2ccc3c(ccn3S(=O)(=O)c3ccccc3)c2)n1` the figure was 209 to 210 °C. For the compound `Cc1ccc(CCN2CCN(c3nsc4ccccc34)CC2)c2c1C(C)(C)CC(=O)N2`, the melting point came out at 129 °C.

`CC(C)n1cnc2c(Nc3cccc(Cl)c3)nc(NCCN)nc21` had a melting point of 55 to 56 °C.

Regarding `O=C(O)c1ccc(OCCCc2ccccc2)cc1`, the melting point was in the range of 165 to 166 °C. With `Fc1ccc(F)c(CN2CCNc3ncc(-c4cn[nH]c4)cc32)c1Cl` the figure was 272 °C; with `CCCCCCCCCCCCCCC(F)(F)P(=O)(O)O`, 66 to 69 °C. In the case of `CC(=O)C1C(=O)CN(Cc2ccccc2)C1=O` (stereo unspecified) it was 74 to 75 °C. With `COC(=O)C=Cc1cc(-c2nn(C)c(C(F)(F)F)c2Cl)c(F)cc1Cl` the figure was 117 °C; with `COc1ccc([C@H]2SC=C(c3ccccc3)N(CCN(C)C)C(=O)[C@H]2OC(C)=O)cc1`, 149 to 151 °C; with `CC(C)(C)OC(=O)C1C(C=CC(=O)O)C1(C)C` (stereo unspecified), 94 °C. Compound `O=C(c1ccoc1)N1CCC(O)(C#Cc2cccc(Cl)c2)CC1` returned a melting point of 93 to 94 °C.

On to `CC1(C)C(=O)N(c2ccnc(N)c2)c2cccnc21`, for which the melting point was 210 to 211 °C. `O=C(O)c1snnc1C1CC1` showed a melting point of 158 to 159 °C. In the case of `N#Cc1cccc2c1OCCN2` it was 79 to 80 °C. With `CCOC(=O)c1cn(C2COC2)c2c(F)c(F)c(F)cc2c1=O` the figure was 146 to 147 °C; with `CCCc1c(OCCCCCc2ccccc2CCC(=O)O)ccc2c1OCCC2=O`, 94 to 96 °C. With `CC(C)CC(COCC(N)=O)NC(=O)C1CCCN1C(=O)OCc1ccccc1` (stereo unspecified) the figure was 146 to 148 °C; with `C=CCN1CCC2(c3cccc(O)c3)CCCC2C1` (stereo unspecified), 106 to 108 °C.

In turn, `O=c1[nH]c(COc2ccccc2)nc2nccnc12` registered a melting point of 220 to 221 °C.

`Cc1ccccc1C(=O)N(C)c1ccc(C(=O)O)cc1` had a melting point of 187 to 190 °C. In the case of `COc1cc2ncnc(N3CCN(C(=S)Nc4ccc(Cc5ccncc5)cc4)CC3)c2cc1OC` it was 198 to 200 °C; in that of `COc1ccc(-n2nc(Sc3cccc(Cl)c3)c(C)c(C#N)c2=O)cc1`, 123 to 124 °C. With `COc1ccc(C(=O)N2CCc3cc(S(=O)(=O)N4CCN(c5cccc(Cl)c5)CC4)ccc32)cc1` the figure was 193 to 194 °C. For `c1ccc2cc(N3CCNCC3)ncc2c1`, the melting point was in the range of 95 to 96 °C. With `CC1(C)CCC(C(=O)O)c2ccccc21` (stereo unspecified) the figure was 80 to 81 °C. In the case of `CCCCCCCCCCCCCCCC(=O)NC#N` it was 62 to 65 °C.

Regarding `CC1(C)CC(OC(=O)c2ccccc2)CC(C)(C)N1C#N`, the melting point lay in the range of 150 to 152 °C. In the case of `CC(=O)C=CC=Cc1ccc(OCc2ccccc2)cc1` it was 132 to 133 °C; in that of `ON=C1CCCc2c1c1cccc3c1n2CC3`, 271 to 272 °C. In the case of `COc1cc(N=Nc2ccc3[nH]nnc3c2)c(O)c2ccccc12` it was 254 °C. In the case of `CCOC(=O)CCc1ccc(OCc2ccc(Cn3nc(C(C)(C)C)cc3C(C)(C)C)cc2)cc1F` it was 73 to 74 °C; in that of `CC(=Cn1ccnc1)C(=O)c1ccc(Cl)cc1Cl`, 129 to 130 °C; in that of `OCCC#Cc1ccc(-c2ccc(F)cc2)cc1`, 134 °C. Turning to `CC(=O)Nc1ccc(O)c(CN2CCC(NC(=O)c3ccccc3)CC2)c1`, the melting point was found to be 242 °C. With `NS(=O)(=O)c1ccc(-c2c(-c3ccccc3)noc2COc2ccc(C(=O)O)cc2)cc1` the figure was 206 to 208 °C; with `CCOC(=O)CC(=O)N(C)c1ccc(Cl)cc1[N+](=O)[O-]`, 45 to 47 °C. In the case of `CC(C)(C)c1ccc(C(=O)Nc2cn3cc(Cl)ccc3n2)cc1`, the melting point fell in the range of 250 to 251 °C.

`COCCOc1ccc(CCCOC(=O)NS(=O)(=O)NCCc2cccs2)c(Oc2ncc(C(F)(F)F)cc2Cl)c1` came in with a melting point of 118 °C. The compound `N=c1n(CCO)c2ccccc2n1-c1ccccc1` came in with a melting point of 210 to 212 °C. With `CC(C)(C)OC(=O)Nc1cccc(C2(O)CCOCC2)c1` the figure was 140 to 142 °C; with `Fc1ccc(C=Nc2ccccc2)cc1`, 39 to 40 °C. In the case of `COc1ccc(OCc2ccc(OCc3nc(-c4ccccc4)oc3C)cc2)c(CC(=O)O)c1`, the melting point was 134 to 136 °C. Turning to `CCCC1CCc2cc(OC)c(Cl)c(Cl)c2C1=O` (stereo unspecified), the melting point was in the range of 127 to 129 °C. In the case of `C#CC(CCCCC)OC(c1ccccc1)(c1ccccc1)c1ccccc1` (stereo unspecified) it was 65 to 66.5 °C; in that of `CCC12CC3CC(CC(C)(C3)C1)C2`, less than 80 °C.

By melting point is commonly meant the temperature, or range, at which the solid turns liquid.
